Measured values taken from paper PMC6978316, “Development of chimeric peptides to facilitate the neutralisation of lipopolysaccharides during bactericidal targeting of multidrug-resistant Escherichia coli” (Communications Biology, 2020).
Where a SMILES comes first, the peptide text is derived from it. Bridges are numbered along the chain shown (N, C = ends).

Columns and labels:
[1] = test system: E. coli LPS; assay: BODIPY-TR-cadaverine (BC) displacement assay; format: binding, Escherichia coli; conditions: 100 μM
Procedure: The affinity of SCPs (A6, G6, and N6) to E. coli LPS was detected by the fluorescent BC probe. The binding of fluorescent probe with LPS can cause fluorescence quenching. When peptides bind to LPS, BC probe can be replaced, which can result in an increase in fluorescence. Equal volumes of LPS (40 μg per ml) and BC probe (10 μM) in 50 mM Tris buffer (pH 7.4) were mixed and added into a black 96-well microtiter plate (180 μl mixture per well), followed by the addition of different concentrations of A6, G6, or N6 (20 μl per well). Ampicillin and PMB were used as the negative and positive control, respectively. Changes in fluorescence were measured by a fluorescence spectrophotometry at room temperature (excitation: 580 nm, emission: 620 nm) and the BC displacement rate was calculated.

[2] = test system: MDR E. coli CVCC195; assay: Thermal stability, residual antibacterial activity (inhibition zone); format: physicochemical, Escherichia coli; conditions: mean of n = 3
[3] = test system: S. aureus, Enterococcus faecalis, and Streptococcus suis; format: cell-based
Procedure: (§1) The MIC values of A6, G6, the parental peptides (N6 and LBP14), LBPN6, scramble controls (N6CK, A6CK, and G6CK), and PMB were determined by the microtiter broth dilution method. The tested strains included Gram-negative bacteria, Gram-positive bacteria, and fungi and were cultured to the logarithmic growth phase, diluted to 10^5 CFU per ml, and added into 96-well plates (90 μl per well). Peptides or antibiotic were diluted with PBS by 2-fold dilution and were added to each well (10 μl per well). Polymyxin B (PMB) and PBS were used as the positive and negative control, respectively. […] All experiments were repeated three times.

[4] = in vitro; conditions: for half-life / remaining at 2 h / remaining at 1 h / remaining at 4 h: mouse, serum; for remaining at 2 h / remaining at 1 h / remaining at 4 h / peptide remained intact in serum: mice serum, 37 °C, RP-HPLC
Procedure: The thermal, pH and enzyme stability of A6 and G6 were evaluated against MDR E. coli CVCC195 using a previous method with minor revisions. The N6, A6, and G6 solutions were treated at different temperatures (20–100 °C) for 1 h, dissolved and incubated at different pH values (2–10) for 3 h, or incubated with trypsin or pepsin for 4 h. The inhibition zone diameters were measured after incubation at 37 °C for 18–24 h. The peptides were dissolved in H2O or mice serum at 37 °C to detect their serum stability and samples were removed at different time points to determine their residual activity by the inhibition zone or reverse-phase high-performance liquid chromatography (RP-HPLC) methods[62],[63].

[5] = Biodistribution of FITC-labeled peptides (in vivo fluorescence imaging); conditions: nude mice, FITC-labeled peptide 5 mg per kg intraperitoneally
Procedure: The nude mice were intraperitoneally injected with 5 mg per kg FITC-labeled A6, G6, and N6, respectively. Free FITC was used as a negative control.

[6] = test system: MDR E. coli CVCC195; assay: Time-killing curves (bactericidal kinetics); format: cell-based, Escherichia coli; conditions: 1 × or 2 × MIC, MHB, 37 °C
Procedure: The bactericidal effect of peptides was investigated according to previous methods. […] Physiological saline was added as a control. Bacterial samples (100 μl) were removed at different time points (0, 0.5, 1, 2, 4, 6, 8, 10, and 12 h) and were counted on MH solid plates. The time-killing curve of A6 and G6 was plotted.

[7] = test system: trypsin; format: in vitro ADME
[8] = test system: pepsin; format: in vitro ADME
[9] = test system: IκBα; assay: Western blotting of lung tissues, IκBα/β-actin; format: in vivo, mice; conditions: for densitometric analysis of IκBα/β-actin ratio: LPS + substance, Mean; for effect on LPS-induced IκBα levels: lung tissue 8 h, LPS 13.5 mg per kg, western blotting
Procedure: Additionally, the mice were sacrificed at 8 h and the lung tissues were homogenized and suspended in […] HEPES buffer for 20 min according to standard procedures. After centrifugation at 4 °C for 20 min (12,000 rpm), the protein levels of supernatants were quantified using a Bradford protein assay kit. A total of 30 μg proteins were analyzed on an 8–12% sodium dodecyl sulfate-polyacrylamide gel electrophoresis (SDS-PAGE) gel and were immunoblotted onto PVDF membranes, followed by an incubation with the primary antibodies of p65, p-p65, extracellular signal-regulated kinase (ERK)1/2, p-ERK1/2, and IκBα overnight at 4 °C. After washing, the blots were incubated with the peroxidase conjugated goat-rabbit or goat-mouse antibodies. Relative protein expression levels were quantified by a densitometric measurement of chemiluminescence (ECL) reaction band. β-actin was used as the internal reference.

[10] = test system: LPS-induced lung injury; assay: Protection of lung tissues from LPS (histology); format: in vivo; conditions: LPS-challenged mice, 0.25 μmol per kg
Procedure: The mice were treated with N6 (0.25 μmol per kg), A6 (0.25 μmol per kg), G6 (0.25 μmol per kg), and PMB (10 μmol per kg), respectively after the intraperitoneal injection of LPS at a concentration of LD100. The lung tissues were taken at 1 d and 6 d, respectively, washed with PBS and placed in 4% paraformaldehyde for 24 h at 4 °C. After washing with PBS, the tissues were dehydrated by a series of different concentrations of ethanol (75%, 85%, 90%, and 95%) and were immersed in xylene for paraffin embedding. After sectioning, the samples were stained with hematoxylin and were observed by a light microscope. The mice challenged with LPS and PBS served as the negative and blank control, respectively.

[11] = test system: MDR E. coli CVCC195; assay: Sepsis mouse model, survival after lethal E. coli challenge; format: in vivo, ICR mice; conditions: mice, E. coli 5 × 10^8 CFU i.p.; 0.25 μmol per kg; 7 d; n = 5
Procedure: The mouse survival was recorded for 7 d. The mice injected with LPS or saline were used as negative or blank controls, respectively.

[12] = test system: S. pullorum CVCC533; assay: MIC, microtiter broth dilution; format: cell-based, Salmonella pullorum; conditions: 37 °C, 16–18 h, three independent experiments
Procedure: as §1

[13] = test system: Pseudomonas aeruginosa CICC10419; assay: MIC, microtiter broth dilution; format: cell-based; conditions: 37 °C, 16–18 h, three independent experiments
Procedure: as §1

[14] = test system: Staphylococcus aureus ATCC43300; assay: MIC, microtiter broth dilution; format: cell-based; conditions: 37 °C, 16–18 h, three independent experiments
Procedure: as §1

[15] = test system: Enterococcus faecalis CVCC3936; assay: MIC, microtiter broth dilution; format: cell-based; conditions: 37 °C, 16–18 h, three independent experiments
Procedure: as §1

[16] = test system: Streptococcus suis CVCC606; assay: MIC, microtiter broth dilution; format: cell-based; conditions: 37 °C, 16–18 h, three independent experiments
Procedure: as §1

[17] = 20℃ for 1 h, inhibition zone vs E. coli CVCC195 after 37 °C 18–24 h
[18] = 40℃ for 1 h, inhibition zone vs E. coli CVCC195
[19] = 60℃ for 1 h, inhibition zone vs E. coli CVCC195
[20] = 80℃ for 1 h, inhibition zone vs E. coli CVCC195
[21] = 100℃ for 1 h, inhibition zone vs E. coli CVCC195
[22] = peptide remaining in serum, Mean, 1 h, mean of n = 3 (source data Fig. 2f)
[23] = peptide remaining in serum, Mean, 2 h, mean of n = 3 (source data Fig. 2f)
[24] = peptide remaining in serum, Mean, mean of n = 3 (source data Fig. 2f)

Row | Compound | BC displacement ratio [1] [%] | antibacterial activity after heat treatment (inhibition zone diameter), Mean [2, 17] | antibacterial activity after heat treatment (inhibition zone diameter), Mean [2, 18] | antibacterial activity after heat treatment (inhibition zone diameter), Mean [2, 19] | antibacterial activity after heat treatment (inhibition zone diameter), Mean [2, 20] | antibacterial activity after heat treatment (inhibition zone diameter), Mean [2, 21] | MICs against S. aureus, Enterococcus faecalis, and Streptococcus suis [3] | half-life [4] [h] | remaining at 1 h [4, 22] [%] | remaining at 2 h [4, 23] [%] | remaining at 4 h [4, 24] [%] | time after injection at which the fluorescence disappeared / peptide was excreted [5] [h] | time to completely kill E. coli CVCC195 [6] [h] | antibacterial activity after trypsin (inhibition zone diameter), Mean [7] | antibacterial activity after pepsin (inhibition zone diameter), Mean [8] | antibacterial activity without enzyme (inhibition zone diameter), Mean [8] | densitometric analysis of IκBα/β-actin ratio [9] | effect on LPS-induced IκBα levels [9] | lung histology at 1 d [10] | lung histology at 6 d [10] | also measured
1 | H-RVQGRWKVRASFFKEAAAKEAAAKGFAWNVCVYRNGVRVCHRRAN-OH (disulfide 31-40) [A6] | 100 | 1.498 | 1.533 | 1.494 | 1.5 | 1.477 | greater than 3.52 μM | < 2 | 27 | 7.18 | 4.77 | 48 | ≤ 1 | 0 | 1.623 | 1.456 | 1.193 | promoted LPS-induced IκBα levels | partial alleviation of tissue swelling and injury | no pathological changes | remaining at 2 h ([4]; peptide remained intact in serum, 2 h): 7%
2 | CC(C)[C@@H]1NC(=O)CNC(=O)[C@H](CC(N)=O)NC(=O)[C@H](CCCNC(=N)N)NC(=O)[C@H](Cc2ccc(O)cc2)NC(=O)[C@H](C(C)C)NC(=O)[C@@H](NC(=O)[C@@H](NC(=O)[C@H](CC(N)=O)NC(=O)[C@H](Cc2c[nH]c3ccccc23)NC(=O)[C@H](C)NC(=O)[C@H](Cc2ccccc2)NC(=O)CN)C(C)C)CSSC[C@@H](C(=O)N[C@@H](Cc2c[nH]cn2)C(=O)N[C@@H](CCCNC(=N)N)C(=O)N[C@@H](CCCNC(=N)N)C(=O)N[C@@H](C)C(=O)N[C@@H](CC(N)=O)C(=O)O)NC(=O)[C@H](C(C)C)NC(=O)[C@H](CCCNC(=N)N)NC1=O [N6] (H-GFAWNVCVYRNGVRVCHRRAN-OH; disulfide 7-16; N-terminus and C-terminus assumed) | 90.5 | 1.935 | 1.912 | 1.95 | 1.964 | 1.917 | – | – | – | – | – | – | 4 | – | – | – | 1.158 | promoted LPS-induced IκBα levels | partial alleviation of tissue swelling and injury | no pathological changes | –
3 | polymyxin B [PMB] | 83.7 | – | – | – | – | – | – | – | – | – | – | – | ≤ 1 | – | – | – | 1.0324 | promoted LPS-induced IκBα levels | – | – | survival rate [11]: 100%
4 | CC(C)[C@@H]1NC(=O)CNC(=O)[C@H](CC(N)=O)NC(=O)[C@H](CCCNC(=N)N)NC(=O)[C@H](Cc2ccc(O)cc2)NC(=O)[C@H](C(C)C)NC(=O)[C@@H](NC(=O)[C@@H](NC(=O)[C@H](CC(N)=O)NC(=O)[C@H](Cc2c[nH]c3ccccc23)NC(=O)[C@H](C)NC(=O)[C@H](Cc2ccccc2)NC(=O)CNC(=O)[C@H](CO)NC(=O)CNC(=O)CNC(=O)CNC(=O)CNC(=O)[C@H](CCCCN)NC(=O)[C@H](Cc2ccccc2)NC(=O)[C@H](Cc2ccccc2)NC(=O)[C@H](CO)NC(=O)[C@H](C)NC(=O)[C@H](CCCNC(=N)N)NC(=O)[C@@H](NC(=O)[C@H](CCCCN)NC(=O)[C@H](Cc2c[nH]c3ccccc23)NC(=O)[C@H](CCCNC(=N)N)NC(=O)CNC(=O)[C@H](CCC(N)=O)NC(=O)[C@@H](NC(=O)[C@@H](N)CCCNC(=N)N)C(C)C)C(C)C)C(C)C)CSSC[C@@H](C(=O)N[C@@H](Cc2c[nH]cn2)C(=O)N[C@@H](CCCNC(=N)N)C(=O)N[C@@H](CCCNC(=N)N)C(=O)N[C@@H](C)C(=O)N[C@@H](CC(N)=O)C(=O)O)NC(=O)[C@H](C(C)C)NC(=O)[C@H](CCCNC(=N)N)NC1=O [G6] (H-RVQGRWKVRASFFKGGGGSGFAWNVCVYRNGVRVCHRRAN-OH; disulfide 26-35) | 100 | 1.451 | 1.421 | 1.5 | 1.473 | 1.413 | greater than 3.52 μM | < 2 | 68.6 | 29.6 | 11.2 | 48 | ≤ 1 | 0 | 1.607 | 1.439 | 0.9933 | promoted LPS-induced IκBα levels | partial alleviation of tissue swelling and injury | no pathological changes | MIC [12]: 16 μg per ml; peptide remained intact in serum ([4]; 1 h): 68.5%; peptide remained intact in serum ([4]; 2 h): 29.5%; MIC [13]: 16 μg per ml; MIC [14]: 16 μg per ml; MIC [15]: 16 μg per ml; MIC [16]: 16 μg per ml
